The target in data set [1] is Histone deacetylase 1 (Homo sapiens) (UniProt Q13547). Briefly: Inhibition of HDAC1 in human MM1.S cells assessed as increase in acetylated histone H3 level at 1 uM incubated for 6 hrs by Western blot analysis. In kind it is cell-based.
The nature of data set [2]: Stability of compound in human whole blood assessed as half-life at 1 uM measured upto 40 mins by LC-MS/MS analysis. In kind it is ADME, tissue-based.
For another data set, the system named is MM1.S. Briefly: Antiproliferative activity against human MM1.S cells assessed as reduction in cell viability measured after 72 hrs by CellTiter-Glo assay. In kind it is functional, cell-based.
The next data set concerns N2a. Briefly: Antiproliferative activity against mouse Neuro2a cells assessed as effect on cell viability by CellTiter-Glo assay. In kind it is functional, cell-based.
The target of data set [3] is Protein cereblon/Protein deacetylase HDAC6 (Mus musculus) (UniProt Q9Z2V5+Q8C7D2). Briefly: In vivo PROTAC activity at CRBN/HDAC6 in female C57BL/6J mouse assessed as reduction in HDAC6 protein level in liver at 5 mg/kg, iv measured after 6 hrs by Western blot analysis relative to control. In kind it is functional, organism-based. Further details: scale not given: the % may be the effect or the level left.
Chain of Protein cereblon/Protein deacetylase HDAC6 (Mus musculus) (Q8C7D2 whole entry, looked up): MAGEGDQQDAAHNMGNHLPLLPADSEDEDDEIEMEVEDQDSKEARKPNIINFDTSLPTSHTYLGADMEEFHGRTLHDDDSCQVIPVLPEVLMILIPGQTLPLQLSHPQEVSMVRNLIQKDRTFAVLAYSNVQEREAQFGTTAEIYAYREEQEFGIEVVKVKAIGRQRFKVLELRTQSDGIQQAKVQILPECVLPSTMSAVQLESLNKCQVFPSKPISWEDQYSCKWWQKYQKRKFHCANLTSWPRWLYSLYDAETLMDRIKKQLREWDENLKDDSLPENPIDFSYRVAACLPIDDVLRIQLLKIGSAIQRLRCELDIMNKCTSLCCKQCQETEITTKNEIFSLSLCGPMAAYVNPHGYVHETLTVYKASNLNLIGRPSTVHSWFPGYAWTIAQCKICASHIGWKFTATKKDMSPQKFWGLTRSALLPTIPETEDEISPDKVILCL
Chain of Protein cereblon/Protein deacetylase HDAC6 (Mus musculus) (Q9Z2V5 whole entry, looked up): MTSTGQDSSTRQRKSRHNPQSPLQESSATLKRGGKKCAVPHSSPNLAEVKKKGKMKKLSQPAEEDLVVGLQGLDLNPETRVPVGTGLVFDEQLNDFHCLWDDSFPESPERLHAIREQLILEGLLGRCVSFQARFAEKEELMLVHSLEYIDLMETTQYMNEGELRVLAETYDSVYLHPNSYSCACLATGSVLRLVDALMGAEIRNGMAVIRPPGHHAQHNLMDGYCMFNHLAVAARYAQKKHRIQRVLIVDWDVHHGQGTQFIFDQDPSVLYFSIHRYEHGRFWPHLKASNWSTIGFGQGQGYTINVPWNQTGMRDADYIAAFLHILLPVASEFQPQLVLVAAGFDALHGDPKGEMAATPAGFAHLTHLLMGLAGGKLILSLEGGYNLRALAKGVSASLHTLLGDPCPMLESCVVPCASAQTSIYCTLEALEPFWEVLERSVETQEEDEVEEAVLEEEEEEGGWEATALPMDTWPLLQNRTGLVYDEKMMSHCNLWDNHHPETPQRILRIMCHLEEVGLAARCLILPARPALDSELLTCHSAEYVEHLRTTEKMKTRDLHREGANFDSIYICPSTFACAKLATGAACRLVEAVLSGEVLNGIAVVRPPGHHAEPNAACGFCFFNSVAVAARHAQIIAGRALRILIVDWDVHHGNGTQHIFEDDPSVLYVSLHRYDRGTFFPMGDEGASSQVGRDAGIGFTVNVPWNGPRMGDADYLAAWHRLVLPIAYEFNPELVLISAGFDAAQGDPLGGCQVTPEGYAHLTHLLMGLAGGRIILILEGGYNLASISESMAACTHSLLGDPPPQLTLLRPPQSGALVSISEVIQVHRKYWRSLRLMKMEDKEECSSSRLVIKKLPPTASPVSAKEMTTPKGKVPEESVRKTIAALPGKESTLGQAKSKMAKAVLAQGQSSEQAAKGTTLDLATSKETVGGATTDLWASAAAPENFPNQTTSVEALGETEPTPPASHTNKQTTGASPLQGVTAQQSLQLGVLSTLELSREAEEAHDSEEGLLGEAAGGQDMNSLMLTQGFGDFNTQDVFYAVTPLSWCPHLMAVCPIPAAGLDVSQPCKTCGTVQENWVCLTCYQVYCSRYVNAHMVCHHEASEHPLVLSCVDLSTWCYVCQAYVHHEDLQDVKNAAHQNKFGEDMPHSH

The target of data set [4] is Histone deacetylase 2 (Homo sapiens) (UniProt Q92769). Briefly: Inhibition of HDAC2 in human MM1.S cells assessed as increase in acetylated histone H3 level at 1 uM incubated for 6 hrs by Western blot analysis. In kind it is cell-based.
Chain of Histone deacetylase 2 (Homo sapiens) (Q92769 whole entry): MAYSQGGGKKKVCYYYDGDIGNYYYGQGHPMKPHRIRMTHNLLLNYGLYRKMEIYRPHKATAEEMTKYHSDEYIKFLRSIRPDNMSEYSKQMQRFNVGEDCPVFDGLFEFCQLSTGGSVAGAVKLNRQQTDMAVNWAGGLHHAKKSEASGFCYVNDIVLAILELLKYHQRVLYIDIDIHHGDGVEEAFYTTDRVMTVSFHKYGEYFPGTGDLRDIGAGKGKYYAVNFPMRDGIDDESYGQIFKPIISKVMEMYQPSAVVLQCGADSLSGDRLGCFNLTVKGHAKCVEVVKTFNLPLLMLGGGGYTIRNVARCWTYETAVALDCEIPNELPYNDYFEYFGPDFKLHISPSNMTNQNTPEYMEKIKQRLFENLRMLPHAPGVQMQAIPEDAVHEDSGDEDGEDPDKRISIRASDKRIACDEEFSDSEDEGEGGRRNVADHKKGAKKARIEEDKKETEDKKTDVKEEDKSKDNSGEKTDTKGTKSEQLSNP
For a further data set, the target named is T1, Histone deacetylase 11 (Homo sapiens, UniProt Q96DB2).
T1 sequence (Q96DB2 whole entry): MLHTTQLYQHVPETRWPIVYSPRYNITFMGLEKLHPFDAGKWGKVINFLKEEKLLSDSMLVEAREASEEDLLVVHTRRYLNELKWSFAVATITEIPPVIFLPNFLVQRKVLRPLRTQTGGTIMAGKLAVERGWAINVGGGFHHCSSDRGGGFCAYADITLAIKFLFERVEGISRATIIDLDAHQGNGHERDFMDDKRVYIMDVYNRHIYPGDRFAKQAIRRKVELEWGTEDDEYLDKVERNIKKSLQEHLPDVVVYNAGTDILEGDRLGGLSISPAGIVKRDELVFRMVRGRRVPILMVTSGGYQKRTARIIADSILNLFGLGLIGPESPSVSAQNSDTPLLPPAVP
Briefly: Inhibition of HDAC11 (unknown origin) using FAM-labeled peptide substrate by […] mobility shift assay.

Data set [5] can be described thus: Selectivity index, ratio of IC50 for inhibition of HDAC8 (unknown origin) to IC50 for inhibition of HDAC6 (unknown origin).
The target of a further data set is T2, Histone deacetylase 8 (Homo sapiens, UniProt Q9BY41).
T2 sequence (Q9BY41 whole entry): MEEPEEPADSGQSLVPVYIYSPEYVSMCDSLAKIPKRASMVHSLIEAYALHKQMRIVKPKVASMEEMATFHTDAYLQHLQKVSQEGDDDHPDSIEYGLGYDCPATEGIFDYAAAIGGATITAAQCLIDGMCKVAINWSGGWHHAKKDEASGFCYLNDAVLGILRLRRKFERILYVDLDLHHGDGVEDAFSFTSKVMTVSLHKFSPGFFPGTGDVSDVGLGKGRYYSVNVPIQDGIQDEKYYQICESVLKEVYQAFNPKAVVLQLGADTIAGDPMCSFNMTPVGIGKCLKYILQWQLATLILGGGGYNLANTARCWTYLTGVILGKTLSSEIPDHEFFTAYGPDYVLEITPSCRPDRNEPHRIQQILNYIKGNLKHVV
Briefly: Inhibition of HDAC8 (unknown origin) using FAM-labeled peptide substrate by […] mobility shift assay.

The target in data set [6] is Protein cereblon/Protein deacetylase HDAC6 (Homo sapiens) (UniProt Q9UBN7+Q96SW2). Briefly: PROTAC activity at CRBN/HDAC6 in human MM1.S cells assessed as induction of HDAC6 degradation at 0.1 to 1 uM by Western blot analysis. In kind it is cell-based. Conditions: dose 0.1-1 µM.
Chain of Protein cereblon/Protein deacetylase HDAC6 (Homo sapiens) (Q96SW2 whole entry, looked up): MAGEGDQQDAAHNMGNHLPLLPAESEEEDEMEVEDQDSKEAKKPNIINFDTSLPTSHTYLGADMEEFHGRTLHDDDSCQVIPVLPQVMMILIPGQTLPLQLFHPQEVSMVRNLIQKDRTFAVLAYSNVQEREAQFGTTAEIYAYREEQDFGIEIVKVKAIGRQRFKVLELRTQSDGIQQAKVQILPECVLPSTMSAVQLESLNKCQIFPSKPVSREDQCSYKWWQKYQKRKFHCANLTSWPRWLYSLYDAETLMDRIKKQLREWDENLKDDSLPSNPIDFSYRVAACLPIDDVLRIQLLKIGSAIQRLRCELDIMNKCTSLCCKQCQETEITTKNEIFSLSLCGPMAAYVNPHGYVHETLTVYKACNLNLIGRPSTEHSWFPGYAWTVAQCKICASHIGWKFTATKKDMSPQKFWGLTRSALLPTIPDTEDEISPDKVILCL
Chain of Protein cereblon/Protein deacetylase HDAC6 (Homo sapiens) (Q9UBN7 whole entry, looked up): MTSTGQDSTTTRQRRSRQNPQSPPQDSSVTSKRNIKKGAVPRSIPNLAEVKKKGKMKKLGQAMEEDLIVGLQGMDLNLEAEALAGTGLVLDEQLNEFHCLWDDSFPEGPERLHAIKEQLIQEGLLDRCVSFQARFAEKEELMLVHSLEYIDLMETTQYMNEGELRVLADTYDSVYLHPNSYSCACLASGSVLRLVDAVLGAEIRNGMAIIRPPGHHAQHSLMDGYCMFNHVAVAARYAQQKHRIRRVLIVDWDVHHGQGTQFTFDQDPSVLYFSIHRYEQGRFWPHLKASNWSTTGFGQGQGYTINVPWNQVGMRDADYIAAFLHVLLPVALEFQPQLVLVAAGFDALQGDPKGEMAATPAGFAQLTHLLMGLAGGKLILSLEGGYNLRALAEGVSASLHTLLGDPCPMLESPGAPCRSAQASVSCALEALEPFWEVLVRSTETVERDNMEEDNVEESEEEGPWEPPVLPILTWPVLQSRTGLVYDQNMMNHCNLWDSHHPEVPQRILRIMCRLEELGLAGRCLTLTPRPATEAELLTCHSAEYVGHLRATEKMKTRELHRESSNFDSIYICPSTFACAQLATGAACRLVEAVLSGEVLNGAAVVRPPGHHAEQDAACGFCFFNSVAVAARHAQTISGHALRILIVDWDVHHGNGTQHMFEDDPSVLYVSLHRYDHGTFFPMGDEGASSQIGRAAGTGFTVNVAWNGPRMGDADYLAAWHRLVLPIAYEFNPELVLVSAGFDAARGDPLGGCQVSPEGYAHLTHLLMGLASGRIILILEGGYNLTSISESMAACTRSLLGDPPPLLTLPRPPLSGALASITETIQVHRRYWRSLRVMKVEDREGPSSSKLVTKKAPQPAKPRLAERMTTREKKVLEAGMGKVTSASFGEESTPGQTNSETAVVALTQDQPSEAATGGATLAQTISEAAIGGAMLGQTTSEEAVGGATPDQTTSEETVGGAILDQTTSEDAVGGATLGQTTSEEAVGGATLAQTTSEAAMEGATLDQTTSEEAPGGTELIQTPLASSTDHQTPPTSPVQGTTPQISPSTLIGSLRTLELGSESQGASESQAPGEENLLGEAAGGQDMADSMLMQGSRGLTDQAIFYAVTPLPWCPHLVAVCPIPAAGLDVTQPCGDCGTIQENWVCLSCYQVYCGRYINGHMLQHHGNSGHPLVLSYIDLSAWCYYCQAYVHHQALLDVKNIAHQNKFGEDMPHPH

The source made the active and inactive calls. The calls are words filed in the database; no cut-off is given here. Bounds are passed on as bounds.

Chain of Histone deacetylase 1 (Homo sapiens) (Q13547 whole entry): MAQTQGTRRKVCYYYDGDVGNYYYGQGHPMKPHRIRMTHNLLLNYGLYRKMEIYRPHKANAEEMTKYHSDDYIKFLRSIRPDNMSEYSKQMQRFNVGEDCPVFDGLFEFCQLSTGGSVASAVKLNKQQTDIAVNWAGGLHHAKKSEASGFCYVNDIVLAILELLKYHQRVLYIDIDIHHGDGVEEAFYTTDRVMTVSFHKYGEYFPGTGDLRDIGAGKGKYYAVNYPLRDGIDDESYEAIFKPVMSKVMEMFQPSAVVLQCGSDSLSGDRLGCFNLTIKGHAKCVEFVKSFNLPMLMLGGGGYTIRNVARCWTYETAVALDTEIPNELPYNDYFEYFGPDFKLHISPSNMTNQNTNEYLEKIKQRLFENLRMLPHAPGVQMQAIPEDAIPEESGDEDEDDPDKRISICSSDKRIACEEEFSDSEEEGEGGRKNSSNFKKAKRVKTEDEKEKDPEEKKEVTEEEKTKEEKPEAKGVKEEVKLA

As to `O=C1CCC(N2C(=O)c3cccc(NCCOCCn4cc(CN(Cc5ccc(C(=O)NO)cc5)Cc5cccnc5)nn4)c3C2=O)C(=O)N1` (stereo unspecified), the inhibition entry in data set [1] and in [4] was “inactive” throughout. In data set [2], the half-life at 1 µM amounted to 1.33 h. In addition, the Activity result in the data set on MM1.S is “Active; Minimal Effect Observed Compared To To-317,Ricolinostat An D Citarinostat”; in data set [3], 60%. Also, in the data set on N2a, the outcome was inactive.
Regarding `O=C1CCC(N2C(=O)c3cccc(NCCN(Cc4ccc(C(=O)NO)cc4)Cc4cccnc4)c3C2=O)C(=O)N1` (stereo unspecified), the inhibition entry in data set [1] and in data set [4] was “inactive” in each case. For the same compound, in data set [2], the half-life at 1 µM was found to be 1.29 h.
`O=C1CCC(N2C(=O)c3cccc(NCCCCCCn4cc(CCCCN(Cc5ccc(C(=O)NO)cc5)Cc5cccnc5)nn4)c3C2=O)C(=O)N1` (stereo unspecified): the inhibition entry in [1] and in data set [4] was “inactive” throughout. In data set [2], the half-life at 1 µM is 0.762 h.
Take `O=C1CCC(N2C(=O)c3cccc(NCCCCN(Cc4ccc(C(=O)NO)cc4)Cc4cccnc4)c3C2=O)C(=O)N1` (stereo unspecified): the inhibition result in [1] and in [4] was “inactive” each time. Besides, the half-life at 1 µM in data set [2] worked out at 1.45 h.
In the case of `O=C1CCC(N2C(=O)c3cccc(NCCCn4cc(CCCCN(Cc5ccc(C(=O)NO)cc5)Cc5cccnc5)nn4)c3C2=O)C(=O)N1` (stereo unspecified), the inhibition entry in data set [1] and in [4] was “inactive” each time. Also, in data set [2], the half-life at 1 µM came to 1.05 h. Moreover, the outcome in the data set with MM1.S and with N2a was inactive.
For the compound `O=C(NO)c1ccc(CN(Cc2cccnc2)S(=O)(=O)c2cc(F)c(F)c(F)c2F)cc1`, the IC50 at Histone deacetylase 11 was over 1000 nM; at Histone deacetylase 8, 31.6 nM. Moreover, in data set [5], the Ratio IC50 was determined as 158.
For `O=C1CCC(N2C(=O)c3cccc(NCCOCCOCCn4cc(CN(Cc5ccc(C(=O)NO)cc5)Cc5cccnc5)nn4)c3C2=O)C(=O)N1` (stereo unspecified), the inhibition entry in data set [1] and in data set [4] was “inactive” throughout. Also, the half-life at 1 µM in data set [2] is 0.62 h. In addition, the IC50 on Histone deacetylase 11 is over 10000 nM.
Turning to `O=C1CCC(N2C(=O)c3cccc(NCCOCCN(Cc4ccc(C(=O)NO)cc4)Cc4cccnc4)c3C2=O)C(=O)N1` (stereo unspecified), the inhibition entry in data set [1] and in data set [4] was “inactive” in each case. The half-life at 1 µM in [2] was 1.36 h.
Consider `O=C1CCC(N2C(=O)c3cccc(NCCCn4cc(CN(Cc5ccc(C(=O)NO)cc5)Cc5cccnc5)nn4)c3C2=O)C(=O)N1` (stereo unspecified), for which the inhibition result in data set [1] and in [4] was “inactive” throughout. Also, the half-life at 1 µM in [2] stood at 0.738 h.
As to `O=C1CCC(N2C(=O)c3cccc(NCCCCCCn4cc(CN(Cc5ccc(C(=O)NO)cc5)Cc5cccnc5)nn4)c3C2=O)C(=O)N1` (stereo unspecified), the inhibition entry in [1] and in data set [4] was “inactive” in each case. Also, in data set [2], the half-life at 1 µM was 0.704 h.
Regarding `O=C1CCC(N2C(=O)c3cccc(NCCOCCn4cc(CCCCN(Cc5ccc(C(=O)NO)cc5)Cc5cccnc5)nn4)c3C2=O)C(=O)N1` (stereo unspecified), the inhibition result in [1] and in [4] was “inactive” each time. Further, the half-life at 1 µM in data set [2] was found to be 1.01 h.
Consider `O=C1CCC(N2C(=O)c3cccc(NCCOCCOCCN(Cc4ccc(C(=O)NO)cc4)Cc4cccnc4)c3C2=O)C(=O)N1` (stereo unspecified), for which the inhibition entry in data set [1] and in data set [4] was “inactive” each time. Also, in [2], the half-life at 1 µM worked out at 1.06 h.
Regarding `O=C1CCC(N2C(=O)c3cccc(NCCOCCOCCn4cc(CCCCN(Cc5ccc(C(=O)NO)cc5)Cc5cccnc5)nn4)c3C2=O)C(=O)N1` (stereo unspecified), the inhibition result in data set [1] and in [4] was “inactive” in each case. Further, the half-life at 1 µM in data set [2] was found to be 0.864 h.
Consider `CN1C(=O)CCC(N2C(=O)c3cccc(NCCOCCOCCn4cc(CN(Cc5ccc(C(=O)NO)cc5)Cc5cccnc5)nn4)c3C2=O)C1=O` (stereo unspecified), for which the outcome in [6] was inactive.

(Values after ChEMBL document CHEMBL6103646 (J Med Chem, 2025).)
